Test [1] concerns stationary phase P. aeruginosa. The experiment in a line: Bactericidal activity against stationary phase P. aeruginosa. The class given is cell-based, Pseudomonas aeruginosa. To be noted: for activity against stationary phase P. aeruginosa: FIG. 1. As for the experimental part:
Pseudomonas aeruginosa NCTC 6751; Gram negative; Reference strain. Bacteria were grown in 10 ml of nutrient broth (No. 2 (Oxoid)) overnight at 37° C., with continuous shaking at 120 rpm. The overnight cultures were diluted (1000×) in 100 ml of growth medium and then incubated without shaking for 10 days. Viability of the bacteria was estimated by colony forming unit (CFU) counts at 2 hour intervals at the first 24 hours and at 12-24 hours afterwards. From serial 10-fold dilutions of the experimental cultures, 100 μl samples were added to triplicate plates of nutrient agar plates (Oxoid) and blood agar plates (Oxoid). Colony forming units (CFU) were counted after incubation of the plates at 37° C. for 24 hours. Cultures incubated for more than 24 hours are in the stationary phase. For drug screening, 5-6 day old stationary phase cultures were used. Different concentrations of each test compound were incubated with stationary phase cultures (5-6 day cultures) in 96 well plates for 24 or 48 hours. Bactericidal activity was then determined by taking CFU counts of the resulting cultures, as described above.

In the next test the test system is stationary phase E. coli. Briefly: Bactericidal activity against stationary phase E. coli (CFU counts). In kind it is cell-based, Escherichia coli. The conditions noted are these: Escherichia coli, read-out: Log kill; for log reduction at 6.25 µg/mL: 6.25 μg/ml; for log reduction at 12.5 µg/mL: 12.50 μg/ml; for log reduction at 25 µg/mL: 25.00 μg/ml. As for the experimental part:
(§1) Escherichia coli K12; Gram negative; Reference strain.
(§2) Bacteria were grown in 10 ml of nutrient broth (No. 2 (Oxoid)) overnight at 37° C., with continuous shaking at 120 rpm. The overnight cultures were diluted (1000×) in 100 ml of growth medium and then incubated without shaking for 10 days. Viability of the bacteria was estimated by colony forming unit (CFU) counts at 2 hour intervals at the first 24 hours and at 12-24 hours afterwards. From serial 10-fold dilutions of the experimental cultures, 100 μl samples were added to triplicate plates of nutrient agar plates (Oxoid) and blood agar plates (Oxoid). Colony forming units (CFU) were counted after incubation of the plates at 37° C. for 24 hours.
(§3) Cultures incubated for more than 24 hours are in the stationary phase. For drug screening, 5-6 day old stationary phase cultures were used.
(§4) Different concentrations of each test compound were incubated with stationary phase cultures (5-6 day cultures) in 96 well plates for 24 or 48 hours. Bactericidal activity was then determined by taking CFU counts of the resulting cultures, as described above.

The subject of test [2] is stationary phase S. aureus. The experiment in a line: Bactericidal activity against stationary phase S. aureus (CFU counts). In kind it is cell-based, Staphylococcus aureus. To be noted: Staphylococcus aureus, read-out: Log Kill; for log reduction at 6.25 µg/mL: 6.25 μg/ml; for log reduction at 12.5 µg/mL: 12.5 μg/ml; for log reduction at 25 µg/mL: 25 μg/ml. As for the experimental part: Staphylococcus aureus (Oxford strain); Gram positive; Reference strain.
as §2, §3, §4

The subject of the next test is persistent E. coli. The experiment in a line: Bactericidal activity against persistent E. coli selected by gentamicin. The conditions noted are these: Escherichia coli, read-out: Log Kill; for log reduction at 6.25 µg/mL: 6.25 μg/ml; for log reduction at 12.5 µg/mL: 12.5 μg/ml; for log reduction at 25 µg/mL: 25 μg/ml. The class given is cell-based, Escherichia coli. As for the experimental part: as §1
An antibiotic (gentamicin) was added to 5-6 day stationary-phase cultures to the final concentration of 50 to 100 μg/ml for 24 hours. After 24 hours of antibiotic treatment, the cells are washed 3 times with phosphate buffered saline (PBS), and then resuspended in PBS. The surviving bacterial cells are used as persisters. Viability is estimated by CFU counts. The persisters were then used in measurements of bactericidal activity for test compounds.
Different concentrations of each test compound were incubated with the (persister) cell suspension in 96 well plates for various periods of time (24 and 48 hours). Bactericidal activity was then determined by taking CFU counts of the resulting cultures, as described above.

The next test relates to log phase E. coli. The experiment in a line: MIC against log phase E. coli. The class given is cell-based, Escherichia coli. To be noted: Escherichia coli, read-out: MIC. As to the method:
as §1
The above-described overnight cultures were diluted (1000×) with iso-sensitest broth. The cultures were then incubated at 37° C. with shaking for 1-2 hours to reach log CFU 6, which served as log phase cultures.
The bactericidal activity of the drugs against log phase cultures were determined by minimal inhibitory concentration (MIC) of the drugs, which is defined as the lowest concentration which inhibits visible growth. Different concentrations of each test compound were incubated with the log-phase cultures in 96 well plates for 24 hours. Bactericidal activity was then examined by taking a spectrophotometer reading (using a plate reader) at 405 nm.

The subject of test [3] is NDM-1 Klebsiella pneumoniae. Briefly: Chequerboard analysis with colistin against NDM-1 Klebsiella pneumoniae. In kind it is cell-based.
Test [4] relates to clinically latent microorganisms. The experiment in a line: Screening for ability to kill clinically latent microorganisms (method of WO2000028074). The class given is cell-based. From the text:
International Patent Application, Publication Number WO2000028074 describes a method of screening compounds to determine their ability to kill clinically latent microorganisms. […] This observation has necessitated the development of novel antimicrobials which may be used to kill clinically latent microorganisms.
By way of example, WO2000028074 describes a suitable method of screening compounds to determine their ability to kill clinically latent microorganisms. A typical method may include the following steps: • (1) growing a bacterial culture to stationary phase; • (2) treating the stationary phase culture with one or more antimicrobial agents at a concentration and or time sufficient to kill growing bacteria, thereby selecting a phenotypically resistant sub-population; • (3) incubating a sample of the phenotypically resistant subpopulation with one or more test compounds or agents; and • (4) assessing any antimicrobial effects against the phenotypically resistant subpopulation.

Structures are written as SMILES. Values after ≈ are worked out from the molar mass of the structure shown. Structures can show the parent of a compound that is named as a salt.

In the case of `OC(c1cc(C(F)(F)F)nc2c(C(F)(F)F)cccc12)C1CCCCN1` (stereo not shown) [Mefloquine], the “log reduction of the bacterium” value in test [1] (40 μg/ml) was “about 1.5 log”. In test [1] (80 μg/ml), the organism removed result is “more than 10^7”. The “activity against stationary phase P. aeruginosa” value in test [1] was “active”. The figures for the log reduction at 6.25 µg/mL (with stationary phase E. coli; in test [2]; in the test on persistent E. coli) were 2.48, -0.01 and 0.02, respectively. The log reduction at 12.5 µg/mL was determined as 6.14 in the test on stationary phase E. coli, 6.03 in test [2] and 0.03 in the test on persistent E. coli. The log reduction at 25 µg/mL in the test with stationary phase E. coli was 6.14; in test [2], 6.03; in the test with persistent E. coli, 6.21. Moreover, the minimal inhibitory concentration (MIC) in the test with log phase E. coli was 10 µg/mL (≈ 26.4 µM). Also, the spectrophotometer reading is 1.10 in test [3] (mefloquine 0.25 mg/L alone); 1.08 in test [3] (mefloquine 0.5 mg/L alone); 1.10 in test [3] (mefloquine 1 mg/L alone); 1.09 in test [3] (mefloquine 2 mg/L alone); 1.09 in test [3] (mefloquine 4 mg/L alone); 1.15 in test [3] (mefloquine 8 mg/L alone). The spectrophotometer reading turned out to be 1.10 in test [3] (mefloquine 16 mg/L alone); 0.82 in test [3] (mefloquine 32 mg/L alone); 0.60 in test [3] (mefloquine 64 mg/L alone); 0.33 in test [3] (mefloquine 128 mg/L alone); 0.34 in test [3] (mefloquine 256 mg/L alone).

For the molecule `CCCCCCCCNC(C)C(O)c1ccc(SC(C)C)cc1` (stereo not shown) [Suloctidil], in test [1], the “activity against stationary phase P. aeruginosa” value is on record as “no observable activity”. The log reduction at 6.25 µg/mL in test [2] amounted to 6.03; in the test with persistent E. coli it was 0.02. The values for the log reduction at 12.5 µg/mL (in test [2]; in the test on persistent E. coli) were 6.03 and 0.02, respectively. Also, the log reduction at 25 µg/mL was 6.03 in test [2] and 6.21 in the test with persistent E. coli. The MIC with log phase E. coli was found to be 10 µg/mL (≈ 29.6 µM). The spectrophotometer reading is given as 0.97 in test [3] (suloctidil 0.25 mg/L alone); 1.03 in test [3] (suloctidil 0.5 mg/L alone); 0.98 in test [3] (suloctidil 1 mg/L alone); 0.93 in test [3] (suloctidil 2 mg/L alone); 0.94 in test [3] (suloctidil 4 mg/L alone); 0.70 in test [3] (suloctidil 8 mg/L alone). For the same molecule, the spectrophotometer reading is given as 0.60 in test [3] (suloctidil 16 mg/L alone); 0.60 in test [3] (suloctidil 32 mg/L alone); 0.38 in test [3] (suloctidil 64 mg/L alone); 0.44 in test [3] (suloctidil 128 mg/L alone); 0.61 in test [3] (suloctidil 256 mg/L alone).

With `CN(C)CCCN1c2ccccc2Sc2ccc(C(F)(F)F)cc21` [Triflupromazine hydrochloride], the log reduction at 6.25 µg/mL came to 2.1 in the test with stationary phase E. coli, 6.15 in test [2] and 0.03 with persistent E. coli. In addition, the log reduction at 12.5 µg/mL came to 6.14 in the test on stationary phase E. coli, 6.15 in test [2] and 2.34 with persistent E. coli. Moreover, the log reduction at 25 µg/mL is 6.14 with stationary phase E. coli, 6.15 in test [2] and 6.21 in the test on persistent E. coli. The MIC with log phase E. coli turned out to be 10 µg/mL. The spectrophotometer reading in test [3] (triflupromazine 0.25 mg/L alone) was found to be 1.11; in test [3] (triflupromazine 0.5 mg/L alone), 1.13; in test [3] (triflupromazine 1 mg/L alone), 1.14; in test [3] (triflupromazine 2 mg/L alone), 1.13; in test [3] (triflupromazine 4 mg/L alone), 1.14; in test [3] (triflupromazine 8 mg/L alone), 1.17. Moreover, the spectrophotometer reading in test [3] (triflupromazine 16 mg/L alone) turned out to be 1.11; in test [3] (triflupromazine 32 mg/L alone) it was 1.08; in test [3] (triflupromazine 64 mg/L alone) it was 0.73; in test [3] (triflupromazine 128 mg/L alone) it was 0.76; in test [3] (triflupromazine 256 mg/L alone), 0.41.

In the case of `CC[C@H]1OC(=O)[C@H](C)[C@@H](O[C@H]2C[C@@](C)(OC)[C@@H](O)[C@H](C)O2)[C@H](C)[C@@H](O[C@@H]2O[C@H](C)C[C@H](N(C)C)[C@H]2O)[C@](C)(O)C[C@@H](C)CN(C)[C@H](C)[C@@H](O)[C@]1(C)O` [azithromycin], the “activity against clinically latent microorganisms” value in test [4] is on record as “little or no activity”.

Regarding `CC(=O)NC[C@H]1CN(c2ccc(N3CCOCC3)c(F)c2)C(=O)O1` [linezolid], the “activity against clinically latent microorganisms” value in test [4] is on record as “little or no activity”.

In the case of `C/C(=C\C(=O)OCCCCCCCCC(=O)O)C[C@@H]1OC[C@H](C[C@@H]2O[C@H]2[C@@H](C)[C@H](C)O)[C@@H](O)[C@H]1O` [mupirocin], the “activity against clinically latent microorganisms” value in test [4] is listed as “little or no activity”.

By MIC is commonly meant the lowest concentration found to suppress growth.

Values taken from patent US9549965B2, “Pharmaceutical composition for treating a microbial infection” (HELPERBY THERAPEUTICS LIMITED, priority 2010, dated 2017).
